Source: patent US8753680B2, “Capsule for the prevention of cardiovascular diseases” (Ferrer Internacional S.A., priority 2008, dated 2014)

What was measured:
[1] = general statement, no test described; cited from earlier work
[2] = Degradation of acetylsalicylic acid by moisture; format: physicochemical; conditions: found in the course of the investigation
Description: Subsequent acetylsalicylic acid sublimation occurs on the surface of ACE inhibitor tablets thus inducing its chemical degradation. A partially hydrolysed polyvinyl alcohol coating film (Opadry AMB™, Colorcon) has been found useful for protecting both acetylsalicylic acid and the ACE inhibitor tablets because of its moisture barrier properties. HMG-CoA reductase inhibitor tablets in the present invention may be coated with a coloured film, such as a hydroxypropylmethyl cellulose comprising film (Opadry Orange™, Colorcon) to hide darkened appearance. Opadry AMB coatings also may comprise one or more than one pigment.

Structure (SMILES)	Solubility in water [1]	Degradation due to moisture [2]
NCCCC[C@H](N[C@@H](CCc1ccccc1)C(=O)O)C(=O)N1CCC[C@H]1C(=O)O [lisinopril, 1-[N^2-[(S)-1-carboxy-3-phenylpropyl]-L-lysyl]-L-proline]	one of the most soluble in water	
CCC[C@H](N[C@@H](C)C(=O)N1[C@H](C(=O)O)C[C@@H]2CCCC[C@@H]21)C(=O)OCC [perindopril, 1-ethylic ester of (2S,3aS,7aS)-1-[(S)-N-[(S)-1-carboxybutyl]alanyl]hexahydro-2-indolinecarboxylic acid]	freely soluble in water	
CC(=O)Oc1ccccc1C(=O)O [acetylsalicylic acid]		degrades to salicylic acid due to moisture
